US7998977B2, “Inhibitors of AKT (protein kinase B)” (Eli Lilly and Company, priority 2006, dated 2011)
pIC50: −log10 of the molar value. Counter-ions that a name gives are not always drawn.

How the values were obtained:
[1] = target: T1, Active human recombinant Akt1 (full-length) (Homo sapiens, UniProt P31749); test: Akt1 Phosphorylation Assay (competitive fluorescence polarization immunoassay, FPIA); assay type: biochemical; settings: 20 μM ATP, 60 min at room temperature, n=3; read-out: IC50, inhibition of Akt1 phosphorylation
T1 construct: Active human recombinant Akt1 (full-length) purified from Sf9 insect cells; purchased Upstate Biotechnology, Inc; host or cells: Sf9 insect cells
Excerpt: Akt1 Phosphorylation Assay
The assay measures the phosphorylation of PKC alpha pseudo-substrate peptide by a Competitive Fluorescence Polarization Immunoassay (FPIA). The assay indirectly measures the concentration of phospho-peptide product formed in a reaction by measuring the change in the intensity of polarized light emitted from a fluorescently-labeled tracer peptide when displaced from a phospho-specific antibody by the phospho-peptide product. Calibration with a standard curve yields quantitative results.
Active human recombinant Akt1 (full-length) purified from Sf9 insect cells is obtained from Upstate Biotechnology, Inc. Peptide Substrate (M.W.1561) is purchased. […]
After 60 min at room temperature the reaction is terminated by adding 25 μL of Quench/Detection Mix containing 260 mM EDTA, 3.4 nM Fluorescein Tracer, and 7.5 nM Anti-Phosphoserine Antibody. The plates are incubated in darkness at room temperature for more than 3 hr, and then fluorescence polarization (at λex=485 nm, […]) is read using a Tecan Ultra plate reader. The concentration of phosphorylated product per well is calculated from millipolarization (mP) units using a prepared peptide competitor dilution series as a standard curve.

[2] = system: Phospho-GSK3b (pGSK3b); test: In vivo target inhibition by a single IV injection, U87MG tumors in nude mice; settings: Mus musculus, U-87 MG, U87MG glioblastoma tumors, single IV injection of 25 mg/kg, at 1 hour, read-out: inhibition of pGSK3b in tumor
Description: In Vivo Target Inhibition Studies
In Vivo Target Inhibition by a Single IV Injection:
Exponentially growing U87MG cells derived from a human glioblastoma are implanted subcutaneously in the rear flank of nude mice. When the tumors reach the size of 200-250 mm^3, compounds are administered to the animals by a single IV injection in a dose-response study or in a time-course study. At the end of each treatment, animals are asphyxiated with CO2. Tumors are harvested by surgical excision, quickly frozen in liquid nitrogen and stored at −80° C. until analysis. Sera are prepared from blood harvested from the heart by cardiac puncture and stored at −80° C. until analysis.
The Akt inhibitor is extracted from serum with acetonitrite/methanol and analyzed alongside an internal standard by LC/MS/MS. Tumors are homogenized in 2 volumes of a lysis buffer containing 25 mM Tris (pH 7.5), Roche complete protease inhibitors, and 1 mM vanadate with Powergen 125 homogenizer, then sequentially passed thorough an 18 gauge needle and a 23 gauge needle. Soluble cytoplasmic extracts are collected from the supernatant fraction after the lysates are centrifuged for 30 minutes at 20,000×g. Protein concentrations in the cytoplasmic extracts are determined with a BCA kit. Phospho-GSK3b (pGSK3b) in the soluble extracts is analyzed with the ELISA Kit.

[3] = system: H1155 cells derived from human non-small cell lung cancer; test: In vivo tumor growth inhibition, H1155 non-small cell lung cancer xenograft; design: species or system nude mice; settings: continuous infusion of 24 mg/kg/day for 4 days, measured at the end of the assay
Description: (§1) In Vivo Tumor Growth Inhibition Studies
(§2) Exponentially growing U87MG cells derived from a human glioblastoma or H1155 cells derived from human non-small cell lung cancer are implanted subcutaneously in the rear flank of nude mice. Three days after tumor cell implants, microsurgery is performed to cannulate catheter for continuous infusion via jugular vein. Example 1, formulated in D5W (5% dextrose in water) at various concentrations, is then infused into mice next day at 40 μL/hr for 4 days. Tumors are measured twice weekly until the study is terminated, usually at 24 days after the initial implants. Tumor growth inhibition is calculated by dividing the average tumor volume of the treated group by that of the vehicle-treated group.

[4] = system: U87MG cells derived from a human glioblastoma; test: In vivo tumor growth inhibition, U87MG glioblastoma xenograft; design: species or system nude mice; settings: continuous infusion of 27 mg/kg/day for 4 days, measured at the end of the assay
Description: as §1, §2

[5] = system: Phospho-GSK3b (pGSK3b), a target of Akt in cells; test: Cell-based ELISA (cELISA) for detection of phospho-GSK3b in U87MG cells; settings: Homo sapiens, U-87 MG, 2 hr treatment, n=8, read-out: IC50, inhibition of pGSK3b
Description: Cell-Based ELISA (cELISA) for the Detection of Phospho-GSK3b (pGSK3b)
Exponentially grown U87MG cells derived from a human glioblastoma are seeded into 96-well plates and incubated overnight at 37° C. with 5% CO2. Ten concentrations of the compound of Example 1 are prepared from a 4 mM stock (in 100% DMSO) by 1:2 serial dilutions into the culture media. Equal volume of each of the serial dilutions is added directly to the cells. Treatment is stopped 2 hr later. At the end of the treatment, the culture media is removed, and the cells are washed once with ice-cold phosphate-buffered saline (PBS). The cells are fixed in PREFER according to vendor's procedure, followed by rinses in PBS/0.1% SDS and PBS/0.1% Triton X-100®, then overnight incubation in SEA Block Blocking buffer. The blocking step is followed by an overnight incubation of the cells with a rabbit antibody against pGSK3b/Ser9, followed by a goat anti-rabbit IgG. The pGSK3b is detected by SuperSignal ELISA Femto following the vendor's procedure.

[6] = Effect of initial solution pH on rate of precipitation; assay type: physicochemical; settings: room temperature
Excerpt: A pharmaceutical composition of 4-[5-(2-amino-ethanesulfonyl)-isoquinolin-7-yl]-phenol monohydrochloride hemihydrate comprises a non-reducing sugar and a pH adjusting agent. […] […]. Also, the rate at which precipitation takes place is pH dependent.

T1 sequence (P31749 whole entry): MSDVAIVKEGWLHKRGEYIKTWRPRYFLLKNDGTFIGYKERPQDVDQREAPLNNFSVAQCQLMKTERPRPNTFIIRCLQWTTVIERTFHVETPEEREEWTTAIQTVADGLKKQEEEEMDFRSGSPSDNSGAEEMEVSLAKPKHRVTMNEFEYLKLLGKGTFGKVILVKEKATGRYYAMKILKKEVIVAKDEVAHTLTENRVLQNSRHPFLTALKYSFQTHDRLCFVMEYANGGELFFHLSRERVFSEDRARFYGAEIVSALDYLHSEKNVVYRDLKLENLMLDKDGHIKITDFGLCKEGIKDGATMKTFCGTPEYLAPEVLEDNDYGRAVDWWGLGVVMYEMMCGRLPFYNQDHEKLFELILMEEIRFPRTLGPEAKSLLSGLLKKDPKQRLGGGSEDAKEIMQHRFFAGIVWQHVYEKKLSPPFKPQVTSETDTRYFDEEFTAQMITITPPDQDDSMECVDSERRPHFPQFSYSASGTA

Row | Compound | pIC50 [1] | inhibition at 25 mg/kg [2] [%] | tumor growth inhibition [3] [%] | tumor growth inhibition [4] [%] | pIC50 [5] | Precipitation (ppt) ([6]; 0.001 N HCl/3% mannitol, initial pH 4.20, approx. 15 mg/mL) | Precipitation (ppt) ([6]; 0.0025 N HCl/3% mannitol, initial pH 3.91, approx. 15 mg/mL) | Precipitation (ppt) ([6]; 0.005 N HCl/3% mannitol, initial pH 3.58, approx. 15 mg/mL) | Precipitation (ppt) ([6]; 0.01 N HCl/3% mannitol, initial pH 3.19, approx. 15 mg/mL) | Precipitation (ppt) ([6]; 0.05 N HCl/3% mannitol, initial pH 1.68, approx. 15 mg/mL)
1 | NCCS(=O)(=O)c1cc(-c2ccc(O)cc2)cc2cnccc12 [Example 1, 4-[5-(2-Amino-ethanesulfonyl)-isoquinolin-7-yl]-phenol di-hydrochloride Salt] | 7.35 | 76 | 63 | 50 | 5.69 | – | – | – | – | –
2 | Cl.Cl.NCCS(=O)(=O)c1cc(-c2ccc(O)cc2)cc2cnccc12.NCCS(=O)(=O)c1cc(-c2ccc(O)cc2)cc2cnccc12.O [4-[5-(2-Amino-ethanesulfonyl)-isoquinolin-7-yl]-phenol Monohydrochloride Hemihydrate] | – | – | – | – | – | ppt after 24 hr | ppt after 36 hr | ppt after 48 hr | no ppt up to 96 hours | no ppt up to 96 hours
